# Patent US20260297542A1, “HERBICIDE RESISTANT PLANTS” (SYNGENTA CROP PROTECTION AG, priority 2023, published 2026)
# Positions count from the first letter of the chain named.
# Legend:
# Assay in all cases: E. coli hemG growth inhibition by herbicide, AtPPO1 variant
# Type in all cases: cell-based
# Conditions in all cases: read-out: percentage growth inhibition
# AtPPO1 T431F = biological target: T1, AtPPO1 T431F (Arabidopsis thaliana, UniProt P55826, T431F)
# T1 construct: expressed in transfected cells; host or cells: E. coli BL21(DE3) hemG, pET24a plasmid
# T1 sequence (P55826 35-537 T431F): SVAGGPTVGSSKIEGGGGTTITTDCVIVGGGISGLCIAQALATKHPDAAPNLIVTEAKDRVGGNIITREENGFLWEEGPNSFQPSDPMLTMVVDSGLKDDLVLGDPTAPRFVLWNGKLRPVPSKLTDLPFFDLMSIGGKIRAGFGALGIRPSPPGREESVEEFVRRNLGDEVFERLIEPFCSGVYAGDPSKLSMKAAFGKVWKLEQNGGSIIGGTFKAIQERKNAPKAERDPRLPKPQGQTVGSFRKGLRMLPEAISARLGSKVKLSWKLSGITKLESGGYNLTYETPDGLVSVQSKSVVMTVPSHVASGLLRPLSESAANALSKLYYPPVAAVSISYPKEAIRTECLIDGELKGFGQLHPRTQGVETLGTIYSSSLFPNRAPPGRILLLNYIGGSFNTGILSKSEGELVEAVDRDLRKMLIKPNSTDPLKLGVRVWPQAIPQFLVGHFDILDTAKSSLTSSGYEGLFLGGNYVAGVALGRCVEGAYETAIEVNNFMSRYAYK
# How it was run: (§1)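 E. coli BL21(DE3) ΔhemG::CmR complemented by AtPPO1 variants (pET24a, T7, E. coli codon-optimised); TB + 0.1 mM IPTG, 1:100 inoculum; 6.25 ppm herbicide 0/E or 0.78 ppm herbicide B vs DMSO; 24 h, 37° C, 250 rpm; OD600 at 24 h → % growth inhibition.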
# AtPPO1 E111F = biological target: T2, AtPPO1 E111F (Arabidopsis thaliana, UniProt P55826, E111F)
# T2 construct: expressed in transfected cells; host or cells: E. coli BL21(DE3) hemG (hemG replaced by CmR), pET24a plasmid
# T2 sequence (P55826 35-537 E111F): T1 sequence (P55826 35-537 T431F) with E77F, F397T
# How it was run: as §1
# AtPPO1 V447I = biological target: T3, AtPPO1 V447I (Arabidopsis thaliana, UniProt P55826, V447I)
# T3 construct: expressed in transfected cells; host or cells: E. coli BL21(DE3) hemG (pET24a, T7 promoter)
# T3 sequence (P55826 35-537 V447I): T1 sequence (P55826 35-537 T431F) with F397T, V413I
# How it was run: as §1
# AtPPO1 Y361Q = biological target: T4, AtPPO1 Y361Q (Arabidopsis thaliana, UniProt P55826, Y361Q)
# T4 construct: expressed in transfected cells; host or cells: E. coli BL21(DE3) hemG (pET24a, T7 promoter)
# T4 sequence (P55826 35-537 Y361Q): T1 sequence (P55826 35-537 T431F) with Y327Q, F397T
# How it was run: as §1
SMILES,inhibition at 6.25 ppm (AtPPO1 T431F) [%],inhibition at 6.25 ppm (AtPPO1 E111F) [%],inhibition at 6.25 ppm (AtPPO1 V447I) [%],inhibition at 6.25 ppm (AtPPO1 Y361Q) [%],inhibition at 0.78 ppm (AtPPO1 T431F) [%],inhibition at 0.78 ppm (AtPPO1 E111F) [%],inhibition at 0.78 ppm (AtPPO1 V447I) [%],inhibition at 0.78 ppm (AtPPO1 Y361Q) [%]
"CC(C)N(C)S(=O)(=O)NC(=O)c1cc(-n2c(=O)cc(C(F)(F)F)n(C)c2=O)c(F)cc1Cl [Herbicide E, saflufenacil]",37,66,61,0,–,–,–,–
"C#CCN1C(=O)C(F)(F)Oc2cc(F)c(-n3c(=O)n(C)c(=S)n(C)c3=O)cc21 [Herbicide B, trifludimoxazin]",–,–,–,–,41,27,35,19
"CCOC(=O)[C@]1(C)CC(c2cc(-n3c(=O)n(C)c(=S)n(C)c3=O)c(F)cc2Cl)=NO1 [Herbicide D, ethyl (5S)-3-[2-chloro-5-(3,5-dimethyl-2,6-dioxo-4-thioxo-1,3,5-triazinan-1-yl)-4-fluoro-phenyl]-5-methyl-4H-isoxazole-5-carboxylate]",0,29,36,32,–,–,–,–
